Measurements published in PMC4263135, “A general strategy for developing cell-permeable photo-modulatable organic fluorescent probes for live-cell super-resolution imaging” (Nature Communications, 2014).
Where a SMILES comes first, the peptide text is derived from it. Side-chain parts run from the residue outwards. [ ]: non-standard residue; d: D form. The star is where a group is joined. FITC = O=C1OC2(c3ccc(O)cc3Oc3cc(O)ccc32)c2ccc(NC(=S)*)cc21; Ahx = NCCCCCC(=O)O

Columns and labels:
[1] = tested on: live BSC-1 cells; assay: Intracellular distribution of probes by confocal microscopy (Trypan blue quench); assay type: cell-based, African green monkey (Cercopithecus aethiops); conditions: 37 °C
Procedure: For F-actin imaging, BSC-1 cells were seeded into cell culture dishes at a density of 1.5 × 10^4 per well in growth medium (MEM supplemented with 10% FBS, 200 μl). After an overnight incubation, the cells were washed with phosphate-buffered saline (PBS, pH 7.4) for three times. A solution of the indicated probe (15 μM, 200 μl) in PBS was then added, and the cells were incubated in a 5% CO2 atmosphere at 37 °C for the indicated (5, 10, 15 and 30 min) times as mentioned in the main text. The supernatant was then discarded, and a solution of Trypan blue (200 μl, 1 mg ml^−1) in PBS was added to quench the extracellular fluorescence of the probes that were bound to either the cell membrane or the dish surface. After 2 min, Trypan blue was removed, the cells were washed gently twice with PBS and immersed in growth medium prior to optical imaging.
The fluorescence signals were detected using a Fluoview FV1000 confocal laser scanning microscope (Olympus) equipped with a × 60/1.42 numerical aperture oil-immersion objective lens (FITC channel: excitation (EX) 488 nm, emission (EM) 510–530 nm; GFP channel: EX 488 nm, EM 508–532 nm; tdEosFP channel: EX 488 nm, EM 500–522 nm; RhB channel: EX 543 nm, EM 580–630 nm; FAM channel: EX 488 nm, EM 505–540 nm and LysoTracker Red channel: excitation (EX) 543 nm, emission (EM) 560–580 nm). All fluorescence images were analyzed with Image J software.

[2] = tested on: F-actin; conditions: cited from earlier work
Source text: The non-fluorescent PA-RhB fluorophore has been reported to be switched on by ultraviolet light, to be thermally reverted to a dark state, and to be excited by 560-nm laser light, emitting optimally at 600 nm in fixed cells. However, it is unknown whether the live-cell environment changes the properties of PA-RhB and whether the PA-RhB fluorophore can be used for live-cell super-resolution imaging.

Row | time to enter the live cells efficiently ([1]; cell uptake, probe 15 μM in PBS, Trypan blue quench of extracellular fluorescence) [min] | Compound | intracellular distribution ([1]; 15 μM in PBS, 5 to 30 min, confocal fluorescence) | affinity for F-actin in live cells [2]
1 | ≤ 5 | CC[C@H](C)[C@H](NC(=O)[C@H](CC(C)C)NC(=O)[C@H](CC(=O)O)NC(=O)[C@H](C)NC(=O)[C@@H](NC(=O)CNC(=O)[C@@H](N)CCSC)C(C)C)C(=O)N[C@@H](CCCCN)C(=O)N[C@@H](CCCCN)C(=O)N[C@@H](Cc1ccccc1)C(=O)N[C@@H](CCC(=O)O)C(=O)N[C@@H](CO)C(=O)N[C@H](C(=O)N[C@@H](CO)C(=O)N[C@@H](CCCCN)C(=O)N[C@@H](CCC(=O)O)C(=O)N[C@@H](CCC(=O)O)C(=O)NCC(=O)NCC(=O)NCC(=O)NCC(=O)N[C@@H](CCCCNC(=O)CCCCCNC(=S)Nc1ccc2c(c1)C(=O)OC21c2ccc(O)cc2Oc2cc(O)ccc21)C(=O)NCC(=O)NCC(=O)N[C@H](CCCNC(=N)N)C(=O)N[C@@H](CCCNC(=N)N)C(=O)N[C@H](CCCNC(=N)N)C(=O)N[C@@H](CCCNC(=N)N)C(=O)N[C@H](CCCNC(=N)N)C(=O)N[C@@H](CCCNC(=N)N)C(=O)N[C@@H](CCCNC(=N)N)C(=O)N[C@@H](CCCNC(=N)N)C(=O)O)[C@@H](C)CC [probe 1] (H-MGVADLIKKFESISKEEGGGGK([Ahx-FITC])GG[dR]R[dR]R[dR]RRR-OH) | diffuse localization throughout the cytoplasm | –
2 | – | MGVADLIKKFESISKEE [Lifeact] | – | low affinity
